Measurements as given in ChEMBL document CHEMBL5150000, “Insights on Dengue and Zika NS5 RNA-dependent RNA polymerase (RdRp) inhibitors” (Eur J Med Chem, 2021).

Columns and labels:
dengue virus type 2 [1] = assay: Antiviral activity against DENV-2 RNA-dependent RNA polymerase infected in African green monkey Vero cells assessed as reduction in viral replication incubated for 2 days by qRT-PCR analysis; type: functional, organism-based; conditions: 48 h
dengue virus type 3 [2] = assay: Antiviral activity against DENV-3 RNA-dependent RNA polymerase infected in African green monkey Vero cells assessed as reduction in viral replication incubated for 2 days by qRT-PCR analysis; type: functional, organism-based; conditions: 48 h
dengue virus type 4 [3] = assay: Antiviral activity against DENV-4 RNA-dependent RNA polymerase infected in African green monkey Vero cells assessed as reduction in viral replication incubated for 2 days by qRT-PCR analysis; type: functional, organism-based; conditions: 48 h
dengue virus type 1 [4] = assay: Antiviral activity against DENV-1 RNA-dependent RNA polymerase infected in African green monkey Vero cells assessed as reduction in viral replication incubated for 2 days by qRT-PCR analysis; type: functional, organism-based; conditions: 48 h
Nonstructural protein 5 [5] = biological target: T1, Nonstructural protein 5 (Dengue virus, UniProt V5TFZ2); assay: Inhibition of DENV NS5/RNA-dependent RNA polymerase
NS5 (Zika virus) = NS5 (Zika virus) (UniProt A0A143MHK7); assay: Inhibition of Zika virus RNA-dependent RNA polymerase relative to control; conditions: concentration not given here
NS5 [6] = biological target: T2, NS5 (Zika virus, UniProt A0A143MHK7); assay: Inhibition of Zika virus RNA-dependent RNA polymerase activity
Vero = assay: Inhibition of DENV-2 RNA-dependent RNA polymerase in African green monkey Vero cells measured for 24 to 72 hrs relative to control; type: cell-based; conditions: dengue virus type 2, time 24-72 hrs, dose or concentration not given here
dengue virus type 4 [7] = assay: Binding affinity to DENV-4 RNA-dependent RNA polymerase assessed as change in enthalpy by ITC analysis
[8] = Inhibition of DENV-3 RNA-dependent RNA polymerase; design: species or system dengue virus type 3
Nonstructural protein 5 [9] = biological target: T1, Nonstructural protein 5; assay: Inhibition of DENV-4 NS5; design: species or system dengue virus type 4
[10] = Binding affinity to DENV-3 RNA-dependent RNA polymerase assessed as dissociation constant incubated for 40 sec by surface plasmon resonance analysis; design: species or system dengue virus type 3
Dengue virus [11] = assay: Antiviral activity against DENV NS5/RNA-dependent RNA polymerase; type: functional, organism-based
[12] = Cytotoxicity against African green monkey Vero cells; type: toxicity, cell-based; conditions: chlorocebus sabaeus
[13] = Inhibition of DENV RNA-dependent RNA polymerase; design: species or system dengue virus type 1
Nonstructural protein 5 [14] = biological target: T1, Nonstructural protein 5; assay: Inhibition of full length His-tagged DENV-2 NS5 incubated for 1 hr; design: species or system dengue virus type 2
Genome polyprotein = Genome polyprotein (dengue virus type 2, UniProt P29990); assay: Inhibition of DENV-2 DENV2 NS2B-NS3
dengue virus type 4 [15] = assay: Antiviral activity against DENV-4 infected in African green monkey Vero E6 cells; type: functional, organism-based; conditions: Vero C1008
dengue virus type 1 [16] = assay: Antiviral activity against DENV-1 infected in African green monkey Vero E6 cells; type: functional, organism-based; conditions: Vero C1008
dengue virus type 3 [17] = assay: Antiviral activity against DENV-3 infected in African green monkey Vero E6 cells; type: functional, organism-based; conditions: Vero C1008
Zika virus [18] = assay: Antiviral activity against Zika virus infected in African green monkey Vero E6 cells; type: functional, organism-based; conditions: Vero C1008
[19] = biological target: Nonstructural protein 5 (Dengue virus) (UniProt V5TFZ2); assay: Binding affinity to DENV-3 NS5 assessed as gibbs free energy change; conditions: dengue virus type 3
Zika virus [20] = assay: Antiviral activity against Zika virus SMGC-1 infected in human Huh-7 cells assessed as reduction in viral titer; type: functional, organism-based; conditions: SMGC-1, Huh-7
NS5 [21] = biological target: T2, NS5; assay: Inhibition of Zika virus wild type RNA-dependent RNA polymerase using ATP as substrate
Dengue virus [22] = assay: Inhibition of DENV RNA-dependent RNA polymerase relative to control; conditions: concentration not given here
[23] = Inhibition of DENV RNA-dependent RNA polymerase activity; design: species or system Dengue virus
dengue virus type 2 [24] = assay: Antiviral activity against DENV-2 RNA-dependent RNA polymerase infected in human Huh-7 cells assessed as reduction in viral replication by RT-PCR analysis; type: functional, organism-based
Zika virus [25] = assay: Antiviral activity against Zika virus infected in African green monkey Vero cells assessed as reduction in viral replication incubated for 24 hrs; type: functional, organism-based

T2 sequence (A0A143MHK7 whole entry): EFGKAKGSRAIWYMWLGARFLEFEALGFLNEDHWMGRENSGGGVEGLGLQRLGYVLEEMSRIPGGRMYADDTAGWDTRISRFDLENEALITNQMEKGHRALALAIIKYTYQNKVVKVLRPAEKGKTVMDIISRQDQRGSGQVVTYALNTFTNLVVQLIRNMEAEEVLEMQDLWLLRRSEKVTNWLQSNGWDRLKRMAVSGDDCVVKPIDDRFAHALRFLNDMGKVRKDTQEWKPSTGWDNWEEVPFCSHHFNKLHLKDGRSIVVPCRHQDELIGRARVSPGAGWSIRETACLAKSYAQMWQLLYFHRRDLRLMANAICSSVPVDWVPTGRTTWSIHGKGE
Chain of NS5 (Zika virus) (A0A143MHK7 as listed by the source): as the sequence (A0A143MHK7 whole entry) above
Chain of Genome polyprotein (P29990 1346-1475 limits assumed): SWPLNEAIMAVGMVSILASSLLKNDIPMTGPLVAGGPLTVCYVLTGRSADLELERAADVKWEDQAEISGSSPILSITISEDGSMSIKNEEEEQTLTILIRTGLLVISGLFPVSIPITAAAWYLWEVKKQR
Chain of Genome polyprotein (P29990 1476-2093 limits assumed): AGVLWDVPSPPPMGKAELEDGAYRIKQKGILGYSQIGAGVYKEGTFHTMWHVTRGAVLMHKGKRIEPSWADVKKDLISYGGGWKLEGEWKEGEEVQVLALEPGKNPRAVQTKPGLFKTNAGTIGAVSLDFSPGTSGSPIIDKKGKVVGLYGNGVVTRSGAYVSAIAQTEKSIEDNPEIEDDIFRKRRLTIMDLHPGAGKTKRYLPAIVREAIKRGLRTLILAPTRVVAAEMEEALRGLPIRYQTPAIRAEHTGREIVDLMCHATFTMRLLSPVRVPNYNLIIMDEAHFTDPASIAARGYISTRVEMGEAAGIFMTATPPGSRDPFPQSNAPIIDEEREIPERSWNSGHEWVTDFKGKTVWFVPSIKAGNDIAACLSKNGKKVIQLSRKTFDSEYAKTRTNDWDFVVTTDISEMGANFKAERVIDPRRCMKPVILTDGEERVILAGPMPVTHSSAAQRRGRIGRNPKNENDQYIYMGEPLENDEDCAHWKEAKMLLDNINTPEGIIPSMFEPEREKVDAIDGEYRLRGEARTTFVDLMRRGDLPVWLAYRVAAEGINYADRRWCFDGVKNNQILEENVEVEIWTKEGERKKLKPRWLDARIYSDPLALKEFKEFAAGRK

Molecule `C[C@@]1(O)[C@H](O)[C@@H](CO)O[C@H]1n1cc(F)c2c(N)ncnc21` has an EC50 (dengue virus type 2 [1]) of 460 nM, an EC50 (dengue virus type 3 [2]) of 850 nM and an EC50 (dengue virus type 4 [3]) of 870 nM. For the same molecule, the EC50 (dengue virus type 1 [4]) was 960 nM.
With `CO[C@@H]1[C@H](O)[C@@H](COP(=O)(O)OP(=O)(O)OP(=O)(O)O)O[C@H]1n1ccc(N)nc1=O` the inhibition (NS5 (Zika virus)) was 72.2%.
For `C[C@@]1(O)[C@H](O)[C@@H](COP(=O)(O)OP(=O)(O)OP(=O)(O)O)O[C@H]1n1ccc2c(N)ncnc21`, the IC50 (NS5 [6]) was 8.92 µM.
For `Cc1cn([C@H]2C=C[C@@H](CO)O2)c(=O)[nH]c1=O`, the inhibition (Vero) was 11%.
`COc1ccc(CC(=O)O)cc1-c1cccs1` gave a deltaH (dengue virus type 4 [7]) of -5.96 kcal/mol, an IC50 [8] of 144 nM and an IC50 (Nonstructural protein 5 [9]) of 140 µM. For the same molecule, the Kd [10] was 29 µM.
`CCCC/C=C/C#CC#CCCCCCCCC(=O)O` [EXOCARPIC ACID] gave an IC50 (Dengue virus [11]) of 2200 nM and a CC50 [12] of 23 µM.
Work on `O=C(O)/C=C/C#CCCCCCCCC(=O)O` yielded an IC50 (Dengue virus [11]) of 2500 nM and a CC50 [12] of over 420 µM.
Work on `COc1ccc(CC(=O)O)cc1-c1ccsc1` yielded a deltaH (dengue virus type 4 [7]) of -7.7 kcal/mol, an IC50 [8] of 205 nM and an IC50 (Nonstructural protein 5 [9]) of 210 µM. For the same molecule, the Kd [10] was 67 µM.
In the case of `Nc1cc(C(F)(F)F)ccc1NC(=O)Nc1cccc(S(=O)(=O)Nc2ccc(C(=O)O)cc2)c1`, the IC50 [13] is reported as 91 µM.
With `O=C1N/C(=N\c2nnc(-c3cccc(F)c3)s2)S/C1=C\c1cccc(F)c1` the IC50 (Nonstructural protein 5 [14]) was 2300 nM.
For `CC(C)[C@H](N)C(=O)OCC(CO)OCn1cnc2c(=O)[nH]c(N)nc21` (stereo partly drawn), the inhibition (Vero) was 10%.
With `COc1cc(O)c2c(=O)cc(-c3ccc(O)cc3)oc2c1-c1cc(-c2cc(=O)c3c(O)cc(O)cc3o2)ccc1O` [SOTETSUFLAVONE] the IC50 (Nonstructural protein 5 [5]) was 160 nM.
`O=C(N[C@@H](Cc1ccc(O)cc1)C(=O)O)c1cc(-c2ccccc2)c(=O)n2c1sc1ccc(OC3CCCCC3)cc12` showed an IC50 (Genome polyprotein) of 9.61 µM.
In the case of `COc1ccc(-c2cc(C(=O)N[C@@H](Cc3ccc(O)cc3)C(=O)O)c3sc4ccc(OC5CCCCC5)cc4n3c2=O)cc1F`, the EC50 (dengue virus type 4 [15]) is reported as 2900 nM, the EC50 (dengue virus type 1 [16]) is reported as 5.1 µM and the EC50 (dengue virus type 3 [17]) is reported as 3.5 µM. For the same molecule, the EC50 (Zika virus [18]) was 10.7 µM.
Molecule `CCNC(=O)Cn1cnc(NC(=O)c2cc(-c3ccc(C)cc3)nc3onc(C)c23)n1` has a deltaG [19] of -10.5 kcal/mol, an EC50 (Zika virus [20]) of 7.43 µM and an IC50 (NS5 [21]) of 1130 nM.
`C[C@@]1(F)[C@H](O)[C@@H](COP(=O)(O)OP(=O)(O)OP(=O)(O)O)O[C@H]1n1ccc(N)nc1=O` [PSI-6130-TP] showed an inhibition (Dengue virus [22]) of 85%, an inhibition (NS5 (Zika virus)) of 67.4% and an IC50 [23] of 1600 nM.
For `C[C@@]1(O)[C@H](O)[C@@H](COP(=O)(O)OP(=O)(O)OP(=O)(O)O)O[C@H]1n1cnc2c(N)ncnc21`, the IC50 (NS5 [6]) was 5.26 µM.
Molecule `O=C(O)CCNC(=O)c1cc(-c2ccccc2)c(=O)n2c1sc1ccc(C3CCCCC3)cc12` has an EC50 (dengue virus type 2 [24]) of 3.5 µM and an EC50 (Zika virus [25]) of 1000 nM.
